Measured values: patent US11000033B2, “Ketone or oxime compound, and herbicide” (NISSAN CHEMICAL CORPORATION, priority 2014, dated 2021)

Experiments:
Format in all cases: in vivo
[1] = system: Chenopodium album; test: Test Example 4: herbicidal effect by soil treatment (symbol O); settings: application herbicide amount 320 g/ha
Method in brief: (§1)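 Seeds were sown in sterilized diluvial soil, covered with about 1.5 cm of soil, and the soil surface was sprayed with a water-diluted emulsion of the compound at a predetermined rate. Plants grew in a greenhouse at 25° C. to 30° C.; effects were scored visually 3 weeks after application.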

[2] = system: Leptochloa chinensis; test: Test Example 3: herbicidal effect by foliage application, Wagner pot (symbol D); settings: application herbicide amount 320 g/ha
Method in brief: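 Foliar spray of a water-diluted emulsion at a predetermined herbicide amount, applied to 14-day-old plants. Seedlings were raised in flooded alluvial soil (0.1–0.5 cm water) at 25–30 °C in a greenhouse. Injury was rated after 3 weeks against fixed criteria.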

[3] = system: Alopecurus myosuroides; test: Test Example 4: herbicidal effect by soil treatment (symbol J); settings: application herbicide amount 320 g/ha
Method in brief: as §1

[4] = system: Amaranthus retroflexus; test: Test Example 5: herbicidal effect by foliage application, plastic box (symbol N); settings: 320 g/ha, 3 weeks after application
Method in brief: (§2)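 Greenhouse foliar test: seedlings at 14 days, grown 25° C. to 30° C. in sterilized diluvial soil; compound applied as an aqueous dilution of an emulsion; response read 3 weeks after spraying.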

[5] = system: transplanted rice plant; test: Test Example 1: effect on crop, application before weed generation in submerged conditions (symbol a); settings: application herbicide amount 320 g/ha
Method in brief: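 Rice at 2.5 leaf stage transplanted into submerged soil (4 cm depth) sown with three weed species; herbicide applied before weed emergence.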

[6] = system: Galium spurium; test: Test Example 4: herbicidal effect by soil treatment (symbol Q); settings: application herbicide amount 320 g/ha
Method in brief: as §1

[7] = system: Lolium multiflorum Lam.; test: Test Example 5: herbicidal effect by foliage application, plastic box (symbol K); settings: 320 g/ha, 3 weeks after application
Method in brief: as §2

[8] = system: Setaria viridis; test: Test Example 4: herbicidal effect by soil treatment (symbol G); settings: application herbicide amount 320 g/ha
Method in brief: as §1

[9] = system: Apera spica-venti; test: Test Example 4: herbicidal effect by soil treatment (symbol L); settings: application herbicide amount 320 g/ha
Method in brief: as §1

[10] = system: Echinochloa crus-galli var. crus-galli; test: Test Example 5: herbicidal effect by foliage application, plastic box (symbol H); settings: 320 g/ha, 3 weeks after application
Method in brief: as §2

[11] = system: Stellaria media; test: Test Example 5: herbicidal effect by foliage application, plastic box (symbol P); settings: 320 g/ha, 3 weeks after application
Method in brief: as §2

[12] = system: Abutilon theophrasti; test: Test Example 5: herbicidal effect by foliage application, plastic box (symbol M); settings: 320 g/ha, 3 weeks after application
Method in brief: as §2

[13] = system: Monochoria vaginalis; test: Test Example 1: herbicidal activity, application before weed generation in submerged conditions (symbol C); settings: application herbicide amount 320 g/ha
Method in brief: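 Weed control was rated three weeks after treatment on a 0–5 scale, from 5% or lower up to 90% or more. Pre-emergence water-surface application of diluted emulsion at a predetermined rate was made on the day of sowing, in flooded (4 cm water) pots containing rice seedlings, kept at 25–30 °C under glass.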

[14] = system: Stellaria media; test: Test Example 4: herbicidal effect by soil treatment (symbol P); settings: application herbicide amount 320 g/ha
Method in brief: as §1

[15] = system: Chenopodium album; test: Test Example 5: herbicidal effect by foliage application, plastic box (symbol O); settings: 320 g/ha, 3 weeks after application
Method in brief: as §2

[16] = system: corn; test: Test Example 5: effect on crop by foliage application, plastic box (symbol c); settings: 320 g/ha, 3 weeks after application
Method in brief: (§3)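 Greenhouse test at 25° C. to 30° C. Seeds of crops and weeds were spot-sown in boxes of sterilized diluvial soil under roughly 1.5 cm soil cover, then grown for foliage treatment.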

[17] = system: rapeseed; test: Test Example 5: effect on crop by foliage application, plastic box (symbol g); settings: 320 g/ha, 3 weeks after application
Method in brief: as §3

[18] = system: Avena fatua; test: Test Example 4: herbicidal effect by soil treatment (symbol I); settings: application herbicide amount 320 g/ha
Method in brief: as §1

[19] = system: Veronica persica; test: Test Example 4: herbicidal effect by soil treatment (symbol R); settings: application herbicide amount 320 g/ha
Method in brief: as §1

Compound	herbicidal effect on D (Leptochloa chinensis), grade 0-5 [2]	N: Amaranthus retroflexus, herbicidal effect grade [4]	K: Lolium multiflorum Lam., herbicidal effect grade [7]	H: Echinochloa crus-galli var. crus-galli, herbicidal effect grade [10]	P: Stellaria media, herbicidal effect grade [11]	M: Abutilon theophrasti, herbicidal effect grade [12]	O: Chenopodium album, herbicidal effect grade [15]	c: corn, effect on crop grade [16]	g: rapeseed, effect on crop grade [17]	Herbicidal effect grade, O: Chenopodium album [1]	Herbicidal effect grade, J: Alopecurus myosuroides [3]	Herbicidal effect grade, R: Veronica persica [19]	Herbicidal effect grade, Q: Galium spurium [6]	Herbicidal effect grade, G: Setaria viridis [8]	Herbicidal effect grade, P: Stellaria media [14]	Herbicidal effect grade, I: Avena fatua [18]	other results
CON=C(C)CC1CC(OC(=O)C(C)(C)Oc2ccc(Cl)cc2)=C(c2c(C)cc(C)cc2C)C1=O (stereo not drawn) [1-051]	5 (Herbicidal ratio of 90% or more (almost completely withered))	1 (Herbicidal ratio of 5% or higher and lower than 20%)	5 (Herbicidal ratio of 90% or more (almost completely withered))	5 (Herbicidal ratio of 90% or more (almost completely withered))	3 (Herbicidal ratio of 40% or higher and lower than 70%)	4 (Herbicidal ratio of 70% or higher and lower than 90%)	0 (Herbicidal ratio of 5% or lower (almost no effect))	5 (Herbicidal ratio of 90% or more (almost completely withered))	4 (Herbicidal ratio of 70% or higher and lower than 90%)	–	–	–	–	–	–	–	O (Chenopodium album) herbicidal effect grade [1]: 0 (Herbicidal ratio of 5% or lower (almost no effect)); J (Alopecurus myosuroides) herbicidal effect grade [3]: 5 (Herbicidal ratio of 90% or more (almost completely withered)); Effect grade on crop, a: transplanted rice plant [5]: 5 (Herbicidal ratio of 90% or more (almost completely withered)); Q (Galium spurium) herbicidal effect grade [6]: 0 (Herbicidal ratio of 5% or lower (almost no effect)); G (Setaria viridis) herbicidal effect grade [8]: 5 (Herbicidal ratio of 90% or more (almost completely withered)); L (Apera spica-venti) herbicidal effect grade [9]: 5 (Herbicidal ratio of 90% or more (almost completely withered)); Herbicidal effect grade, C: Monochoria vaginalis [13]: 0 (Herbicidal ratio of 5% or lower (almost no effect)); P (Stellaria media) herbicidal effect grade [14]: 0 (Herbicidal ratio of 5% or lower (almost no effect)); I (Avena fatua) herbicidal effect grade [18]: 3 (Herbicidal ratio of 40% or higher and lower than 70%)
CC(CC1CC(O)=C(c2c(C)cc(Br)cc2C)C1=O)=NOCC(=O)N(C)C (mixture of isomers) [9-029]	–	0 (Herbicidal ratio of 5% or lower (almost no effect))	5 (Herbicidal ratio of 90% or more (almost completely withered))	3 (Herbicidal ratio of 40% or higher and lower than 70%)	0 (Herbicidal ratio of 5% or lower (almost no effect))	0 (Herbicidal ratio of 5% or lower (almost no effect))	0 (Herbicidal ratio of 5% or lower (almost no effect))	4 (Herbicidal ratio of 70% or higher and lower than 90%)	4 (Herbicidal ratio of 70% or higher and lower than 90%)	0 (Herbicidal ratio of 5% or lower (almost no effect))	3 (Herbicidal ratio of 40% or higher and lower than 70%)	0 (Herbicidal ratio of 5% or lower (almost no effect))	0 (Herbicidal ratio of 5% or lower (almost no effect))	4 (Herbicidal ratio of 70% or higher and lower than 90%)	0 (Herbicidal ratio of 5% or lower (almost no effect))	0 (Herbicidal ratio of 5% or lower (almost no effect))	D (Leptochloa chinensis) herbicidal effect grade ([2]; Table 24): 4 (Herbicidal ratio of 70% or higher and lower than 90%)
CC(=O)CC1CC(O)=C(c2c(C)cc(-c3ncccn3)cc2C)C1=O (stereo not drawn) [7-017]	5 (Herbicidal ratio of 90% or more (almost completely withered))	–	–	–	–	–	–	–	–	0 (Herbicidal ratio of 5% or lower (almost no effect))	0 (Herbicidal ratio of 5% or lower (almost no effect))	0 (Herbicidal ratio of 5% or lower (almost no effect))	0 (Herbicidal ratio of 5% or lower (almost no effect))	0 (Herbicidal ratio of 5% or lower (almost no effect))	0 (Herbicidal ratio of 5% or lower (almost no effect))	0 (Herbicidal ratio of 5% or lower (almost no effect))	N: Amaranthus retroflexus, herbicidal effect (criteria of Test Example 1) [4]: 0 (Herbicidal ratio of 5% or lower (almost no effect)); K: Lolium multiflorum Lam., herbicidal effect (criteria of Test Example 1) [7]: 3 (Herbicidal ratio of 40% or higher and lower than 70%); Herbicidal effect grade, L: Apera spica-venti [9]: 0 (Herbicidal ratio of 5% or lower (almost no effect)); H: Echinochloa crus-galli var. crus-galli, herbicidal effect (criteria of Test Example 1) [10]: 5 (Herbicidal ratio of 90% or more (almost completely withered)); P: Stellaria media, herbicidal effect (criteria of Test Example 1) [11]: 0 (Herbicidal ratio of 5% or lower (almost no effect)); M: Abutilon theophrasti, herbicidal effect (criteria of Test Example 1) [12]: 0 (Herbicidal ratio of 5% or lower (almost no effect)); O: Chenopodium album, herbicidal effect (criteria of Test Example 1) [15]: 0 (Herbicidal ratio of 5% or lower (almost no effect)); c: corn, effect on crop (criteria of Test Example 1) [16]: 0 (Herbicidal ratio of 5% or lower (almost no effect)); g: rapeseed, effect on crop (criteria of Test Example 1) [17]: 0 (Herbicidal ratio of 5% or lower (almost no effect))
